Assay results published in patent US20240307345A1, “R-MDMA and S-MDMA TO ASSIST PSYCHOTHERAPY” (Universitatsspital Basel, priority 2022, published 2024).
“Also recorded” adds a separate entry of the source.

What was measured:
healthy subjects [1] = experiment: Acute subjective effects on the Visual Analog Scale (VAS); assay type: in vivo, human; conditions: 125 mg; compared with both R-MDMA doses and placebo
Procedure: (§1) Study design: The present study compares the acute subjective, physiological and endocrine effects of S-MDMA (125 mg), R-MDMA (125 and 250 mg), MDMA (125 mg) using a placebo-controlled double-blind 5-period cross-over design in 24 healthy subjects. Conditions are 1.) R-MDMA 125 mg, 2). R-MDMA 250 mg, 3) S-MDMA 125 mg, 4) MDMA 125 mg, 5) placebo. Treatment order is counterbalanced. Washout periods between substance administrations are at least 10 days. Study days include a 10-hour study session with a subsequent single measurement (short visit) the next morning (24 hours after drug administration).
Study procedures: The study takes place at the University Hospital Basel. Each of the test sessions last from 8:00 until 18:00 with a short visit the next morning (24 hours after application). An indwelling intravenous catheter is inserted into a subcutaneous vein of the forearm and baseline psychometric measures are obtained. Administration of the substance is at 9:00. Outcome measures (see below) are repeatedly assessed during the study session. Subjects are under continuous medical supervision until any alterations of consciousness have completely subsided and they leave the research facility.
Psychometric assessments: Visual Analog Scale (VAS): VASs is repeatedly used to assess subjective alterations in consciousness over time. Single scales are presented as 100 mm horizontal lines marked with “not at all” on the left and “extremely” on the right. The following VAS items are used: “any drug effect”, “good drug effect”, “bad drug effect”, “stimulated”, “liking”, “happy”, “content”, “talkative”, “open”, “trust”, “feeling close to others”, “anxiety”, “alteration of vision”, “alterations of hearing”, “sounds seem to influence what I see”, “alteration of sense of time”, “the boundaries between myself and my surroundings seem to blur”, “want to be with other people”, and “want to be alone”. Scales are administered before and repeatedly after substance administration and take approximately 2 minutes to fill out. The maximal ratings (Emax, 0-100) and areas under the effect-time curve (AUEC) are defined for each VAS and Emax and AUEC values compared between treatments using analysis of variance. 5-Dimensions of Altered States of Consciousness (5D-ASC): The 5 Dimensions of Altered States of Consciousness (5D-ASC) Scale is a questionnaire containing visual analog scales for 94 items (Studerus et al., 2010). The instrument contains five scales assessing mood, anxiety, derealization, depersonalization, changes in perception, auditory alterations, and reduced vigilance. The scale is well-validated (Studerus et al., 2010) and used internationally to evaluate effects of many other psychoactive substances. The overall psychedelic experience is reflected by the total […] score. Each item of the scale is scored on a 0-100 mm VAS. The attribution of the individual items to the subscales of the 5D-ASC is analyzed according to (Studerus et al., 2010). The 5D-ASC scale is administered once at the end of the session and subjects are instructed to retrospectively rate peak alterations that have been experienced during the study session. Adiective Mood Rating Scale (AMRS): The Adjective Mood Rating Scale (AMRS or EWL60S) is a 60-item Likert scale that allows repeated assessment of mood in 6 dimensions: Activation, inactivation, well-being, anxiety/depressed mood, extra- and introversion, and emotional excitability. The German EWL60S version is used. The AMRS consists of subscales measuring “activation,” “positive mood,” “extraversion,” “introversion,” “inactivation,” and “emotional excitability. The scale has previously been used to evaluate effects of many other psychoactive substances. Emax and AUEC scores will be defined for each subscale and compared between treatments using analysis of variance. The AMRS is administered repeatedly throughout the study session and once 3 days after each session. […]

healthy subjects [2] = experiment: Alteration of mind and mystical-type effects on 5D-ASC and MEQ questionnaires; assay type: in vivo, human; conditions: 125 mg
Procedure: as §1
(§2) Psychometric assessments: Visual Analog Scale (VAS): VASs is repeatedly used to assess subjective alterations in consciousness over time. Single scales are presented as 100 mm horizontal lines marked with “not at all” on the left and “extremely” on the right. The following VAS items are used: “any drug effect”, “good drug effect”, “bad drug effect”, “stimulated”, “liking”, “happy”, “content”, “talkative”, “open”, “trust”, “feeling close to others”, “anxiety”, “alteration of vision”, “alterations of hearing”, “sounds seem to influence what I see”, “alteration of sense of time”, “the boundaries between myself and my surroundings seem to blur”, “want to be with other people”, and “want to be alone”. Scales are administered before and repeatedly after substance administration and take approximately 2 minutes to fill out. The maximal ratings (Emax, 0-100) and areas under the effect-time curve (AUEC) are defined for each VAS and Emax and AUEC values compared between treatments using analysis of variance. 5-Dimensions of Altered States of Consciousness (5D-ASC): The 5 Dimensions of Altered States of Consciousness (5D-ASC) Scale is a questionnaire containing visual analog scales for 94 items (Studerus et al., 2010). The instrument contains five scales assessing mood, anxiety, derealization, depersonalization, changes in perception, auditory alterations, and reduced vigilance. The scale is well-validated (Studerus et al., 2010) and used internationally to evaluate effects of many other psychoactive substances. The overall psychedelic experience is reflected by the total […] score. Each item of the scale is scored on a 0-100 mm VAS. The attribution of the individual items to the subscales of the 5D-ASC is analyzed according to (Studerus et al., 2010). The 5D-ASC scale is administered once at the end of the session and subjects are instructed to retrospectively rate peak alterations that have been experienced during the study session. Adiective Mood Rating Scale (AMRS): The Adjective Mood Rating Scale (AMRS or EWL60S) is a 60-item Likert scale that allows repeated assessment of mood in 6 dimensions: Activation, inactivation, well-being, anxiety/depressed mood, extra- and introversion, and emotional excitability. The German EWL60S version is used. The AMRS consists of subscales measuring “activation,” “positive mood,” “extraversion,” “introversion,” “inactivation,” and “emotional excitability. The scale has previously been used to evaluate effects of many other psychoactive substances. Emax and AUEC scores will be defined for each subscale and compared between treatments using analysis of variance. The AMRS is administered repeatedly throughout the study session and once 3 days after each session. States of Consciousness Questionnaire (SCQ): In the SCQ, 100-items are rated on a six-point scale. Forty-three items embedded into this questionnaire comprise the Mystical Experience Questionnaire (MEQ) (MacLean et al., 2011) which is sensitive to the effects of psychedelic substances such as LSD. […]

healthy subjects [3] = experiment: Effects on mood on the Adjective Mood Rating Scale (AMRS); assay type: in vivo, human; conditions: 125 mg
Procedure: as §1, §2

healthy subjects [4] = experiment: Autonomic effects (blood pressure, heart rate, body temperature); assay type: in vivo, human; conditions: 125 mg
Procedure: as §1
Autonomic measures: Blood pressure, heart rate, and body temperature are recorded at baseline and repeatedly throughout the session. Blood pressure (systolic and diastolic) and heart rate are measured with an automatic oscillometric device. Body temperature is measured with an ear thermometer. Emax is determined for each of the measures and for each study session. These Emax values are then compared between drug conditions using analysis of variance.

healthy subjects [5] = experiment: Connectedness subscale of the PES questionnaire; assay type: in vivo, human; conditions: 125 mg
healthy subjects [6] = experiment: Clinical cross-over study, overall comparison of the substances; assay type: in vivo, human; conditions: conclusion over the doses tested
Procedure: as §1

mice [7] = conditions: compared with R-MDMA; cited from earlier work
rhesus monkeys = conditions: cited from earlier work
mice [8] = conditions: cited from earlier work
animals = conditions: various animal studies; cited from earlier work
[9] = 75 mg; earlier study; cited from earlier work
[10] = human; after administration of racemic MDMA; compared to R-MDA; cited from earlier work

Structure (SMILES) | VAS “talkative,” “open,” “trust,” and “I feel close to others” (healthy subjects [1]) | acute mystical-type experiences on the 5D-ASC scale (healthy subjects [2]; 24 subjects) | psychedelic effects on the 5D-ASC and the MEQ questionnaires (healthy subjects [2]; compared with placebo (and 125 mg R-MDMA)) | effects on the AMRS (healthy subjects [3]) | body temperature (healthy subjects [4]) | heart rate (healthy subjects [4]; versus placebo) | ratings of connectedness, difference between conditions (healthy subjects [5]) | acute subjective effects and adverse effects (healthy subjects [6]) | onset of interoceptive effects (mice [7]) | reinforcing properties (rhesus monkeys) | lethal doses (mice [8]) | social interaction (animals) | body temperature [9] | plasma levels of the active metabolite [10] | time of peak plasma level of the active metabolite [10]
CNC(C)Cc1ccc2c(c1)OCO2 (racemic) [(±)-MDMA, ±3,4-methylenedioxymethamphetamine, reference compound] | higher values | comparable effects with no significant differences | comparable and overall greater psychedelic effects | comparable effects | increased similarly; also recorded: increased body temperature only moderately | increase heart rate comparably and more than with placebo | no difference | overall comparable | faster | moderate reinforcing properties | similar | Increased social interaction | did not significantly increase body temperature |  | 
C[C@H](N)Cc1ccc2c(c1)OCO2 [S-MDA] |  |  |  |  |  |  |  |  |  |  |  |  |  | higher | peaked earlier
